What was measured:
Format in all cases: cell-based
[1] = test system: dermatophytes, fungi producing mildew spots and material-damaging fungi; assay: Fungistatic activity, overall result; details: by comparison with the reference preparation
Procedure: (§1) 1×1 cm prewashed and autoclaved test specimens of standard cotton cloth to DIN 53919 (WfK-Testgewebe GmbH, Adlerstr. 42, Krefeld) were placed in the test solutions for 15 minutes, removed under sterile conditions and dried for 14 h at room temperature. 0.1 ml inoculation suspensions of the test fungi mentioned above were inoculated into malt agar in a petri dish and, after the agar had solidified, 0.1 ml was spread over the agar surface with a spatula.
(§2) The test specimens impregnated with the test solutions were then placed on the agar surface under sterile conditions and the dishes were incubated for 7 days at 25° C. The inhibiting effect was then evaluated to the following scheme: […]

[2] = test system: Candida albicans, ATCC 10231; assay: Fungicidal activity by the DGHM germ carrier test; design: key: +: living culture; −: dead culture
Procedure: (§3) Candida albicans, ATCC 10231 (precultured on CaSo agar, 4 d/25° C.), Aspergillus niger, ATCC 6275 (precultured on malt agar, 8d/25° C.), Trichophyton mentagrophytes, ATCC 9533 (precultured on malt agar, 8d/25° C.), Cladosporium cladosporioides, DSM 62121 (precultured on malt agar, 8d/25° C.), Epicoccum nigrum, self-isolate (precultured on malt agar, 8d/25°).
(§4) The inocula were obtained by floating off the preculture plates with 0.05% Tween®80 and had the following germ contents:
(§5) The test was carried out under the Richtlinien für die Prüfung und Bewertung chemischer Desinfektionsverfahren (Guidelines for the Testing and Evaluation of Chemical Disinfection Processes) of the Deutsche Gesellschaft für Hygiene und Mikrobiologie (DGHM), Gustav Fischer Verlag, 1981:
(§6) 16 prewashed and autoclaved test specimens were placed in the above-mentioned inoculation suspensions of the test fungi and left therein for 15 minutes during which they were turned over several times. The test specimens thus contaminated were then transferred to empty Petri dishes where 10 ml of the test solutions were poured over them. After contact times of 60 and 120 minutes at 20° C., two of the test specimens were removed, briefly transferred to 10 ml of DGHM inactivator solution and then inoculated onto CaSo plates (Candida) or malt agar plates (other test fungi). Incubation lasted 7 days at 25° C. and was followed by qualitative evaluation, i.e. growth yes (+) or no (−).

[3] = test system: Aspergillus niger, ATCC 6275; assay: Fungicidal activity by the DGHM germ carrier test; design: key: +: living culture; −: dead culture
Procedure: as §3, §4, §5, §6

[4] = test system: Cladosporium cladosporioides, DSM 62121; assay: Fungicidal activity by the DGHM germ carrier test; design: key: +: living culture; −: dead culture
Procedure: as §3, §4, §5, §6

[5] = test system: Trichophyton mentagrophytes, ATCC 9533; assay: Fungicidal activity by the DGHM germ carrier test; design: key: +: living culture; −: dead culture
Procedure: as §3, §4, §5, §6

[6] = test system: Epicoccum nigrum, self-isolate; assay: Fungicidal activity by the DGHM germ carrier test; design: key: +: living culture; −: dead culture
Procedure: as §3, §4, §5, §6

[7] = test system: Candida albicans, ATCC 10231; assay: Fungistatic activity by the inhibition test; details: 7 days at 25° C.; for inhibiting effect evaluation: impregnated cotton specimens
Procedure: as §3, §4, §1, §2

[8] = test system: Aspergillus niger, ATCC 6275; assay: Fungistatic activity by the inhibition test; details: 7 days at 25° C.; for inhibiting effect evaluation: impregnated cotton specimens
Procedure: as §3, §4, §1, §2

[9] = test system: Cladosporium cladosporioides, DSM 62121; assay: Fungistatic activity by the inhibition test; details: 7 days at 25° C.; for inhibiting effect evaluation: impregnated cotton specimens
Procedure: as §3, §4, §1, §2

[10] = test system: Trichophyton mentagrophytes, ATCC 9533; assay: Fungistatic activity by the inhibition test; details: 7 days at 25° C.; for inhibiting effect evaluation: impregnated cotton specimens
Procedure: as §3, §4, §1, §2

[11] = test system: Epicoccum nigrum, self-isolate; assay: Fungistatic activity by the inhibition test; details: 7 days at 25° C.; for inhibiting effect evaluation: impregnated cotton specimens
Procedure: as §3, §4, §1, §2

[12] = 100 ppm, contact time 60 mins. at 20° C.
[13] = 100 ppm, contact time 120 mins. at 20° C.
[14] = 500 ppm, contact time 60 mins. at 20° C.
[15] = 500 ppm, contact time 120 mins. at 20° C.
[16] = 750 ppm, contact time 60 mins. at 20° C.
[17] = 750 ppm, contact time 120 mins. at 20° C.

CCCCNC(=O)OCC#CI [IPBC, 3-Iodo-2-propinyl butyl carbamate]
10-12 mm: inhibition zone ([8]; 750 ppm test solution)
60 mins. +: growth after contact (fungicidal activity) [2, 12] | growth after contact (fungicidal activity) [2, 14] | growth after contact (fungicidal activity) [2, 16] | growth after contact (fungicidal activity) [3, 12] | growth after contact (fungicidal activity) [3, 14] | growth after contact (fungicidal activity) [3, 16] | growth after contact (fungicidal activity) [4, 12] | growth after contact (fungicidal activity) [5, 12] | growth after contact (fungicidal activity) [6, 12]
very good fungistatic activity: fungistatic activity (overall) [1]
5-7 mm: inhibition zone ([9]; 500 ppm test solution) | inhibition zone ([9]; 750 ppm test solution)
60 mins. −: growth after contact (fungicidal activity) [4, 14] | growth after contact (fungicidal activity) [4, 16] | growth after contact (fungicidal activity) [5, 14] | growth after contact (fungicidal activity) [5, 16] | growth after contact (fungicidal activity) [6, 14] | growth after contact (fungicidal activity) [6, 16]
120 mins. −: growth after contact (fungicidal activity) [4, 15] | growth after contact (fungicidal activity) [4, 17] | growth after contact (fungicidal activity) [5, 15] | growth after contact (fungicidal activity) [5, 17] | growth after contact (fungicidal activity) [6, 15] | growth after contact (fungicidal activity) [6, 17]
120 mins. +: growth after contact (fungicidal activity) [2, 13] | growth after contact (fungicidal activity) [2, 15] | growth after contact (fungicidal activity) [2, 17] | growth after contact (fungicidal activity) [3, 13] | growth after contact (fungicidal activity) [3, 15] | growth after contact (fungicidal activity) [3, 17] | growth after contact (fungicidal activity) [4, 13] | growth after contact (fungicidal activity) [5, 13] | growth after contact (fungicidal activity) [6, 13]
5-9 mm: inhibition zone ([11]; 100 ppm test solution)
11-14 mm: inhibition zone ([11]; 500 ppm test solution)
1 mm: inhibition zone ([9]; 100 ppm test solution)
3-5 mm: inhibition zone ([7]; 500 ppm test solution) | inhibition zone ([7]; 750 ppm test solution) | inhibition zone ([8]; 100 ppm test solution)
0/0: inhibiting effect evaluation ([7]; 500 ppm test solution) | inhibiting effect evaluation ([7]; 750 ppm test solution) | inhibiting effect evaluation ([8]; 100 ppm test solution) | inhibiting effect evaluation ([8]; 500 ppm test solution) | inhibiting effect evaluation ([8]; 750 ppm test solution) | inhibiting effect evaluation ([9]; 100 ppm test solution) | inhibiting effect evaluation ([9]; 500 ppm test solution) | inhibiting effect evaluation ([9]; 750 ppm test solution) | inhibiting effect evaluation ([10]; 100 ppm test solution) | inhibiting effect evaluation ([10]; 500 ppm test solution) | inhibiting effect evaluation ([10]; 750 ppm test solution) | inhibiting effect evaluation ([11]; 100 ppm test solution) | inhibiting effect evaluation ([11]; 500 ppm test solution) | inhibiting effect evaluation ([11]; 750 ppm test solution)
12-15 mm: inhibition zone ([10]; 500 ppm test solution) | inhibition zone ([11]; 750 ppm test solution)
1/1: inhibiting effect evaluation ([7]; 100 ppm test solution)
3-6 mm: inhibition zone ([10]; 100 ppm test solution)
9-11 mm: inhibition zone ([8]; 500 ppm test solution)
15-18 mm: inhibition zone ([10]; 750 ppm test solution)
